From patent US8252737B2, “Antimicrobial peptides and methods of use” (priority 2004, dated 2012)
Converted amounts (≈) assume the structure as drawn. Read-outs that look alike come from different tables or passages of the source. Square brackets hold non-standard residues; d marks the D form. Peptide text beside a SMILES is read from it.

What was measured:
gram-positive bacteria = system: gram-positive bacteria
Method: (§1) Measurement of Antimicrobial Activity—Minimal inhibitory concentrations (MICs) were determined using a standard microtiter dilution method in LB (Luria-Bertani) no-salt medium (10 g of tryptone and 5 g of yeast extract per liter). Briefly, cells were grown overnight at 37° C. in LB and diluted in the same medium. […] Plates were incubated at 37° C. for 24 hours and MICs determined as the lowest peptide concentration that inhibited growth. Alternatively, minimal inhibitory concentrations were determined using a standard microtiter dilution method in a Mueller-Hinton (MH) medium. Briefly, cells were grown overnight at 37° C. in MH broth and diluted in the same medium. […] Plates were incubated at 37° C. for 24 hours and MICs determined as the lowest peptide concentration that inhibited growth. However, for MIC determination of Pseudomonas aeruginosa clinical isolates, brain heart infusion (BH1) medium was used instead of MH broth. In addition, the bacteria were diluted to a final inoculum of 1×10^6 colony-forming units/ml.

human erythrocytes = assay: Hemolytic activity (MHC), Protocol A, 12 hours; conditions: for minimal hemolytic concentration (MHC): incubation for 12 hours at 37° C. (Tables 7 and 8)
Method: Measurement of Hemolytic Activity—Protocol A: Peptide samples were added to 1% human erythrocytes in phosphate buffered saline (0.08M NaCl; 0.043M Na2PO4; 0.011M KH2PO4) and reactions were incubated at 37° C. for 12 hours in microtiter plates. Peptide samples were diluted 2 fold in order to determine the concentration that produced no hemolysis. […] Hemoglobin release was determined spectrophotometrically at 562 nm. The hemolytic titer was the highest 2-fold dilution of the peptide that still caused release of hemoglobin from erythrocytes. The control for no release of hemoglobin was a sample of 1% erythrocytes without any peptide added. […] Peptide samples were diluted 2 fold in order to determine the concentration that produced no hemolysis. […] Hemoglobin release was determined spectrophotometrically at 570 nm. The hemolytic titer was the highest 2-fold dilution of the peptide that still caused release of hemoglobin from erythrocytes. The control for no release of hemoglobin was a sample of 1% erythrocytes without any peptide added.

[1] = RP-HPLC temperature profiling (hydrophobicity and self-association/dimerization parameter PA); assay type: physicochemical; conditions: for tR (min) 5° C.: RP-HPLC retention time at 5° C. during temperature profiling (measure of hydrophobicity); for tR (min) 80° C.: RP-HPLC retention time at 80° C. during temperature profiling; for Hydrophobicity tR5: RP-HPLC retention time at pH 2, 5° C.; for Hydrophobicity tR80: RP-HPLC retention time at pH 2, 80° C.; for tR (min) Max: maximal RP-HPLC retention time during temperature profiling 5-80° C.; for PA (min) association parameter: maximal retention time difference relative to control peptide C within 5-80° C.; for PA (dimerization / self-association parameter): maximal retention time difference relative to control peptide C, 5-80° C.; for ΔtR (X-NVL) (min) 5° C. / ΔtR (X-NVL) (min) 80° C. / decrease in hydrophobicity relative to NVL (V681): non-polar face substitutions; for ΔtR (X-NVL) (min) 5° C.: retention time difference relative to native peptide V681 (NVL) at 5° C.; for ΔtR (X-NVL) (min) 5° C. / ΔtR (X-NVL) (min) 80° C.: relative hydrophobicity; for ΔtR (X-NVL) (min) 80° C.: retention time difference relative to native peptide V681 (NVL) at 80° C.; for decrease in hydrophobicity relative to NVL (V681): RP-HPLC retention time difference at 80° C.
Procedure, shortened: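 RP-HPLC retention times recorded over temperature profiling from 5°C to 80°C, with retention relative to native V681 at each limit used as hydrophobicity. Self-association parameter PA defined as the maximal change in retention time from 5°C, after subtracting that of monomeric random-coil control peptide C.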

gram-negative bacteria = assay: MIC, microtiter dilution, Gram-negative bacteria (geometric mean of 6 strains); assay type: cell-based; conditions: for MIC (μg/ml) GM: geometric mean of MIC values from all 6 Gram-negative strains of Table 11; for MIC (μg/ml) Gram-negative: geometric mean MIC, Table 9; for geometric mean MIC against Gram-negative bacteria: 6 strains of Table 7
Method: The geometric mean MIC values from 6 microbial strains in this table were calculated to provide an overall evaluation of antimicrobial activity against gram-negative bacteria.
In Table 11, geometric mean MIC was calculated to provide an overall view of antimicrobial activity of the peptides against Gram-negative bacteria and was also used to calculate the therapeutic index.
as §1

[2] = minimal hemolytic concentration on human red blood cells (hRBC), Table 9

| Compound | minimal hemolytic concentration (MHC) (human erythrocytes) [µg/mL] | tR (min) 5° C. [1] [min] | tR (min) 80° C. [1] [min] | tR (min) Max [1] [min] | PA (min) association parameter [1] [min] | ΔtR (X-NVL) (min) 5° C. [1] [min] | ΔtR (X-NVL) (min) 80° C. [1] [min] | MHC (human erythrocytes; [2]) [µg/mL] | MIC (μg/ml) Gram-negative (gram-negative bacteria) [µg/mL] | further results |
| --- | --- | --- | --- | --- | --- | --- | --- | --- | --- | --- |
| CC[C@H](C)[C@H](NC(=O)[C@H](C)NC(=O)[C@H](CCCCN)NC(=O)[C@H](CC(C)C)NC(=O)[C@H](C)NC(=O)[C@@H](NC(=O)[C@H](Cc1c[nH]cn1)NC(=O)[C@H](CC(C)C)NC(=O)[C@@H](NC(=O)[C@@H](NC(=O)[C@H](CCCCN)NC(=O)[C@@H](C)NC(=O)[C@H](C)NC(=O)[C@H](CO)NC(=O)[C@H](CCCCN)NC(=O)[C@H](Cc1ccccc1)NC(=O)[C@@H](NC(=O)[C@H](CCCCN)NC(=O)[C@H](CC(C)C)NC(=O)[C@H](Cc1ccccc1)NC(=O)[C@H](CO)NC(=O)[C@H](CCCCN)NC(=O)[C@H](Cc1c[nH]c2ccccc12)NC(=O)[C@H](CCCCN)NC(C)=O)[C@@H](C)O)[C@@H](C)O)C(C)C)[C@@H](C)O)C(=O)N[C@@H](CO)C(=O)N[C@@H](CO)C(N)=O [NAD] | 250 | 40.49 | 38.00 | 41.01 | 2.19 | -7.61 | -7.83 |  |  | MIC (μg/ml) GM (gram-positive bacteria): 2.8 µg/mL (≈ 0.954 µM); fold decrease in hemolytic activity compared to the L-diastereomer (human erythrocytes): 8; Hydrophobicity tR5 [1]: 81.2 min; Hydrophobicity tR80 [1]: 73.2 min; PA (dimerization / self-association parameter) [1]: 4.1; MIC (μg/ml) GM (gram-negative bacteria): 3.1 µg/mL (≈ 1.06 µM) |
| CC[C@H](C)[C@H](NC(=O)[C@H](C)NC(=O)[C@H](CCCCN)NC(=O)[C@H](CC(C)C)NC(=O)[C@H](C)NC(=O)[C@@H](NC(=O)[C@H](Cc1c[nH]cn1)NC(=O)[C@H](CC(C)C)NC(=O)[C@@H](NC(=O)[C@@H](NC(=O)[C@H](CCCCN)NC(=O)[C@H](C)NC(=O)[C@H](C)NC(=O)[C@H](CO)NC(=O)[C@H](CCCCN)NC(=O)[C@H](Cc1ccccc1)NC(=O)[C@@H](NC(=O)[C@H](CCCCN)NC(=O)[C@H](CC(C)C)NC(=O)[C@H](Cc1ccccc1)NC(=O)[C@H](CO)NC(=O)[C@H](CCCCN)NC(=O)[C@H](Cc1c[nH]c2ccccc12)NC(=O)[C@H](CCCCN)NC(C)=O)[C@@H](C)O)[C@@H](C)O)C(C)C)[C@@H](C)O)C(=O)N[C@@H](CO)C(=O)N[C@@H](CO)C(N)=O [NAL] | 31.2 | 43.94 | 41.38 | 44.88 | 2.59 | -4.16 | -4.45 | 31.2 | 3.8 (≈ 1.3 µM) | MIC (μg/ml) Gram-positive (gram-positive bacteria): 4.5 µg/mL (≈ 1.53 µM); decrease in hydrophobicity relative to NVL (V681) [1]: -4.45 min |
| CC[C@H](C)[C@H](NC(=O)[C@H](C)NC(=O)[C@H](CCCCN)NC(=O)[C@H](CC(C)C)NC(=O)[C@H](C)NC(=O)[C@@H](NC(=O)[C@H](Cc1c[nH]cn1)NC(=O)[C@H](CC(C)C)NC(=O)[C@@H](NC(=O)[C@@H](NC(=O)[C@H](CCCCN)NC(=O)[C@@H](CCCCN)NC(=O)[C@H](C)NC(=O)[C@H](CO)NC(=O)[C@H](CCCCN)NC(=O)[C@H](Cc1ccccc1)NC(=O)[C@@H](NC(=O)[C@H](CCCCN)NC(=O)[C@H](CC(C)C)NC(=O)[C@H](Cc1ccccc1)NC(=O)[C@H](CO)NC(=O)[C@H](CCCCN)NC(=O)[C@H](Cc1c[nH]c2ccccc12)NC(=O)[C@H](CCCCN)NC(C)=O)[C@@H](C)O)[C@@H](C)O)C(C)C)[C@@H](C)O)C(=O)N[C@@H](CO)C(=O)N[C@@H](CO)C(N)=O [NKD] |  | 34.05 | 30.96 | 34.05 | 1.10 | -14.05 | -14.87 | >250.0 | 7.7 (≈ 2.57 µM) | MIC (μg/ml) Gram-positive (gram-positive bacteria; geometric mean MIC, Table 9): 18.7 µg/mL (≈ 6.25 µM) |
| CC[C@H](C)[C@H](NC(=O)[C@H](C)NC(=O)[C@H](CCCCN)NC(=O)[C@H](CC(C)C)NC(=O)[C@H](C)NC(=O)[C@@H](NC(=O)[C@H](Cc1cnc[nH]1)NC(=O)[C@H](CC(C)C)NC(=O)[C@@H](NC(=O)[C@@H](NC(=O)[C@H](CCCCN)NC(=O)[C@H](CCCCN)NC(=O)[C@H](C)NC(=O)[C@H](CO)NC(=O)[C@H](CCCCN)NC(=O)[C@H](Cc1ccccc1)NC(=O)[C@@H](NC(=O)[C@H](CCCCN)NC(=O)[C@H](CC(C)C)NC(=O)[C@H](Cc1ccccc1)NC(=O)[C@H](CO)NC(=O)[C@H](CCCCN)NC(=O)[C@H](Cc1c[nH]c2ccccc12)NC(=O)[C@H](CCCCN)NC(C)=O)[C@@H](C)O)[C@@H](C)O)C(C)C)[C@@H](C)O)C(=O)N[C@@H](CO)C(=O)N[C@@H](CO)C(N)=O [NKL] |  | 36.85 | 33.22 | 36.91 | 1.10 | -11.25 | -12.61 |  |  | MIC (μg/ml) GM (gram-positive bacteria; geometric mean of MIC values from all 6 gram-positive strains of Table 12): 7.9 µg/mL (≈ 2.64 µM); fold decrease in hemolytic activity compared to V681 (human erythrocytes; 12 hours): > 32; Hydrophobicity tR5 [1]: 74.9 min; Hydrophobicity tR80 [1]: 64.7 min; decrease in hydrophobicity relative to NVL (V681) [1]: -12.61 min; PA (dimerization / self-association parameter) [1]: 2.1; geometric mean MIC against Gram-negative bacteria (gram-negative bacteria): 3.1 µg/mL; MIC (μg/ml) GM (gram-negative bacteria): 3.9 µg/mL (≈ 1.3 µM); fold improvement on the average MIC compared to V681 (gram-negative bacteria; gram-negative bacteria, geometric mean comparison, Table 7): 2.8 |
| CC[C@H](C)[C@H](NC(=O)[C@H](C)NC(=O)[C@H](CCCCN)NC(=O)[C@H](CC(C)C)NC(=O)[C@H](C)NC(=O)[C@@H](NC(=O)[C@H](Cc1c[nH]cn1)NC(=O)[C@H](CC(C)C)NC(=O)[C@@H](NC(=O)[C@@H](NC(=O)[C@H](CCCCN)NC(=O)[C@@H](CO)NC(=O)[C@H](C)NC(=O)[C@H](CO)NC(=O)[C@H](CCCCN)NC(=O)[C@H](Cc1ccccc1)NC(=O)[C@@H](NC(=O)[C@H](CCCCN)NC(=O)[C@H](CC(C)C)NC(=O)[C@H](Cc1ccccc1)NC(=O)[C@H](CO)NC(=O)[C@H](CCCCN)NC(=O)[C@H](Cc1c[nH]c2ccccc12)NC(=O)[C@H](CCCCN)NC(C)=O)[C@@H](C)O)[C@@H](C)O)C(C)C)[C@@H](C)O)C(=O)N[C@@H](CO)C(=O)N[C@@H](CO)C(N)=O [NSD] (Ac-KWKSFLKTFKSA[dS]KTVLHTALKAISS-NH2) |  | 37.02 | 34.08 | 37.12 | 1.46 | -11.08 | -11.75 |  | 6.3 (≈ 2.14 µM) | MIC (μg/ml) Gram-positive (gram-positive bacteria): 16.0 µg/mL (≈ 5.42 µM); MHC (human erythrocytes): >250.0 µg/mL |
| CC[C@H](C)[C@H](NC(=O)[C@H](C)NC(=O)[C@H](CCCCN)NC(=O)[C@H](CC(C)C)NC(=O)[C@H](C)NC(=O)[C@@H](NC(=O)[C@H](Cc1c[nH]cn1)NC(=O)[C@H](CC(C)C)NC(=O)[C@@H](NC(=O)[C@@H](NC(=O)[C@H](CCCCN)NC(=O)[C@H](NC(=O)[C@H](C)NC(=O)[C@H](CO)NC(=O)[C@H](CCCCN)NC(=O)[C@H](Cc1ccccc1)NC(=O)[C@@H](NC(=O)[C@H](CCCCN)NC(=O)[C@H](CC(C)C)NC(=O)[C@H](Cc1ccccc1)NC(=O)[C@H](CO)NC(=O)[C@H](CCCCN)NC(=O)[C@H](Cc1c[nH]c2ccccc12)NC(=O)[C@H](CCCCN)NC(C)=O)[C@@H](C)O)C(C)C)[C@@H](C)O)C(C)C)[C@@H](C)O)C(=O)N[C@@H](CO)C(=O)N[C@@H](CO)C(N)=O [NVD] |  | 42.55 | 40.15 | 43.43 | 2.63 | -5.55 | -5.68 | 62.5 | 3.3 (≈ 1.11 µM) | MIC (μg/ml) Gram-positive (gram-positive bacteria; geometric mean MIC, Table 9): 2.8 µg/mL (≈ 0.945 µM) |
| Ac-KWKSFLKTFKSALKTVLHTALKAISS-NH2 [NLL] | 7.8 | 48.16 | 47.02 | 50.45 | 4.22 | 0.06 | 1.19 |  |  | geometric mean MIC against Gram-negative bacteria (gram-negative bacteria): 12.7 µg/mL |
